Data as given in patent US10933141B2, “Formulations with reduced degradation of polysorbate” (Genentech, Inc., priority 2015, dated 2021).
Entries after “also recorded” stand apart in the source; their conditions may differ.

Columns and labels:
[1] = molecular target: T1, porcine pancreatic lipase (PPL) (Sus scrofa, UniProt P00591); experiment: Enzymatic degradation of PS20 by PPL, 4.5 hour digestion, PS20 by RP-ELSD; format: biochemical; settings: 0.02% PS20; 15 μg/mL PPL 4.5 hours; excipient 15% w/v (methionine 10 mg/mL)
T1 construct: purchased Sigma Aldrich Inc. (St. Louis, Mo.)
T1 sequence (P00591 1-450): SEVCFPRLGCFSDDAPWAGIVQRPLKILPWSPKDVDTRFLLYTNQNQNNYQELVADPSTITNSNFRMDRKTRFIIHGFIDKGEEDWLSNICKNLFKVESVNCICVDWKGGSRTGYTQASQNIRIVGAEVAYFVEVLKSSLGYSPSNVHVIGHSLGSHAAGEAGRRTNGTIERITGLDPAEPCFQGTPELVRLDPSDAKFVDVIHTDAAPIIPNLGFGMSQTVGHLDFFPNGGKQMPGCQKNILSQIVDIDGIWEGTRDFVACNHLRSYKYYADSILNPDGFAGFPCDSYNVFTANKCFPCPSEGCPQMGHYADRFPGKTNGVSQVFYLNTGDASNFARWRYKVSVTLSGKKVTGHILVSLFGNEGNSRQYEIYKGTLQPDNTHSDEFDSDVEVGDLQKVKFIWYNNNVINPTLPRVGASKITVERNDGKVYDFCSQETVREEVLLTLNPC
Description: Polysorbate concentration was determined using reverse phase ultra-performance liquid chromatography using evaporative light scattering detection (RP-ELSD). Samples were analyzed using an Agilent 1100 series high performance liquid chromatography system (HPLC) fitted with a Waters Oasis MAX cartridge column (20×2.1 mm, 30 μm particle size). The HPLC system was set up with a switching valve directing column flow-through to either waste or a Varian 380-LC evaporative light scattering detector set to 100° C. The mobile phases consisted of 2% formic acid in water (Pump A) and 2% formic acid in isopropanol (Pump B). The pump gradient was isocratic at 10% pump B during equilibration, linear to 20% pump B for 1 minute, isocratic at 20% pump B for 2.4 minutes, linear to 100% pump B for 0.1 minutes, isocratic at 100% pump B for 1.1 minutes, linear to 10% pump B for 0.1 minutes, and finally isocratic at 10% pump B for 1.9 minutes. The switching valve directed column flow-through to waste at the beginning of every injection, and then directed flow to the detector after 2.4 minutes until the end of the gradient. In order to quantitate the PS20 concentration, a standard curve was generated by injecting 20 μL of solutions containing between 0% w/v and 0.4% w/v PS20.
(§1) Several excipients were tested for their ability to protect PS20 against enzymatic hydrolysis including HP-α-CD, HP-β-CD, HP-γ-CD, SBE-β-CD, PVP, PEG 1500, sucrose, and methionine. Solutions of each excipient in pH 5.5 buffer were prepared containing a final concentration of 0.02% PS20 after enzyme addition. The concentration of HP-α-CD, HP-β-CD, HP-γ-CD, and SBE-β-CD in the excipient solutions was 106 mM. […] The remaining excipients (PVP, PEG 1500, sucrose) were added to 15% w/v to match the % w/v of HP-β-CD. Samples were digested with 15 μg/mL PPL enzyme for 4.5 hours at room temperature, followed by 30 minutes of heat inactivation at 85° C. Each sample was analyzed for PS20 concentration using high performance liquid chromatography with an inline evaporative light scattering detector. Samples were then placed at 5° C. overnight to allow for the formation of particles and were analyzed for visible and subvisible particles as described previously.
(§2) The effect of the HP-β-CD concentration at different PS20 concentrations on the enzymatic degradation of PS20 was assessed to identify optimal concentrations for inhibition of enzymatic PS20 degradation. To evaluate the dependence of PS20 degradation on HP-β-CD concentration, the PS20 content was determined using RP-ELSD for triplicate samples containing different HP-β-CD concentrations at various PS20 concentrations. Samples containing 0.005% (FIG. 14A), 0.02% (FIG. 14B), 0.1% (FIG. 14C), and 0.4% PS20 (FIG. 14D) were digested using 15 μg/mL of PPL enzyme for 4.5 hours at room temperature in protein-free samples containing no excipient (control), 0, 0.5, 5, and 15% (w/v) HP-β-CD. PPL was added to each of the treatment solutions at a ratio of 75 […], with an equivalent volume of buffer added to the control solutions to determine the effect of HP-β-CD to polysorbate ratio on enzymatic degradation. Digestion was stopped by heat inactivation in an 85° C. water bath for 30 minutes. Each sample was analyzed for PS20 concentration using high performance liquid chromatography with an inline evaporative light scattering detector as described above. Samples were then placed at 5° C. overnight to allow for the formation of particles and placed on ice during analysis for visible and subvisible particles as described above.

[2] = molecular target: T1, porcine pancreatic lipase (PPL); experiment: Subvisible particle formation after PPL digestion of PS20 (HIAC); format: physicochemical; settings: 0.02% PS20; 15 μg/mL PPL 4.5 hours, then 5° C. overnight; excipient 15% w/v (methionine 10 mg/mL)
Description: Subvisible particles were measured using a HIAC 9703 particle counter equipped with an HRDL-150 detector and a 1 mL syringe. Performance of the instrument was verified with NIST-traceable 2 μm Polystyrene bead standards at 3000 counts/mL before each measurement session. The HIAC instrument was configured to a 10 mL/min flow rate, 0.1 mL tare volume, and 0.4 mL sample volume. The samples were analyzed using 4 runs of 0.4 mL sips, with the first run of each sample was discarded to prevent measurement error due to sample carryover. Results were reported as the average values for 1.4, 2, 5, 10, 15, and 25, 50 μm analysis filter sizes.
as §1, §2

| Compound | inhibitory effect on enzymatic PS20 degradation (in words) [1] | effect on SVP formation (in words) [2] |
| --- | --- | --- |
| CSCC[C@H](N)C(=O)O [methionine, reference compound] | did not have an inhibitory effect | did not have an inhibitory effect |
| sulfobutyl ether β-cyclodextrin [SBE-β-CD] | significant inhibitory effects; also recorded: able to prevent enzymatic degradation of PS20 | significant inhibitory effects |
